According to patent US7812032B2 (Abbott Laboratories, priority 2006, dated 2010):
Like-named read-outs stand apart in the source and are kept apart here.

How the values were obtained:
[1] = system: human mixed lymphocyte reaction (MLR); assay: human mixed lymphocyte reaction (MLR) assay; type: cell-based; settings: read-out: Human MLR IC50 ± S.E.M.
[2] = pharmacokinetics after single intravenous dose in cynomolgus monkey; type: in vivo; settings: for t1/2: in vivo, iv, 2.5 mg/kg; for terminal elimination half-life (t1/2) compared to rapamycin: 2.5 mg/kg intravenous
[3] = system: neointimal hyperplasia in porcine coronary arteries containing stents; assay: porcine coronary stent model, A-179578 eluted from BiodivYsio PC coronary stent, 28 days; type: in vivo
Description: The control stents are polymer-coated without drugs. This is important, for the polymer itself must not stimulate neointimal hyperplasia to a substantial degree. As the eluted drug disappears, an inflammatory response to the polymer could conceivably result in a late “catch-up phenomenon” where the restenosis process is not stopped, but instead slowed. This phenomenon would result in restenosis at late dates in human subjects.
Stents were implanted in two blood vessels in each pig. Pigs used in this model were generally 2-4 months old and weighed 30-40 kg. Two coronary stents were thus implanted in each pig by visually assessing a “normal” stent:artery ratio of 1.1-1.2.
Beginning on the day of the procedure, pigs were given oral aspirin (325 mg daily) and continued for the remainder of their course. General anesthesia was achieved by means of intramuscular injection followed by intravenous ketamine (30 mg/kg) and xylazine (3 mg/kg). Additional medication at the time of induction included atropine (1 mg) and flocillin (1 g) administered intramuscularly. During the stenting procedure, an intraarterial bolus of 10,000 units of heparin was administered.
Arterial access was obtained by cutdown on the right external carotid and placement of an 8F sheath. After the procedure, the animals were maintained on a normal diet without cholesterol or other special supplementation.
The BiodivYsio stent was used with nominal vessel target size of 3.0 mm. Two coronary arteries per pig were assigned at random to deployment of the stents. The stent was either a drug eluting stent (polymer plus drug stent) or a stent coated with a polymer only (polymer only stent). The stents were delivered by means of standard guide catheters and wires. The stent balloons were inflated to appropriate sizes for less than 30 seconds.
Each pig had one polymer only stent and one polymer plus drug stent placed in separate coronary arteries, so that each pig would have one stent for drug and one for control. A sample size of 20 pigs total was chosen to detect a projected difference in neointimal thickness of 0.2 mm with a standard deviation of 0.15 mm, at a power of 0.95 and […] 0.02.
Animals were euthanized at 28 days for histopathologic examination and quantification. Following removal of the heart from the perfusion pump system, the left atrial appendage was removed for access to the proximal coronary arteries. Coronary arterial segments with injuries were dissected free of the epicardium. Segments containing lesions were isolated, thereby allowing sufficient tissue to contain uninvolved blood vessel at either end. […]
The severity of vessel injury and the neointimal response were measured by calibrated digital microscopy. […]

[4] = rate of release of A-179578 from 316L stainless steel coupons coated with PC polymer; type: physicochemical; settings: PC polymer coated 316L coupons, 0.01 M phosphate buffer pH 6.0
Description: Rubber septa from lids from HPLC vials were removed from the vials and placed into glass vials so that the “Teflon” side faced up. These septa served as supports for the test samples. The test samples were 316L stainless steel coupons that had been previously coated with a biocompatible polymer containing phosphorylcholine side groups (PC polymer). Coronary stents are commonly made of 316L stainless steel and can be coated with the PC polymer to provide a depot site for loading drugs. The coated coupons, which serve to simulate stents, were placed onto the septa. By using a glass Hamilton Syringe, a solution of A-179578 and ethanol (10 μl) was applied to the surface of each coupon. The solution contained A-179578 (30.6 mg) dissolved in 100% ethanol (3.0 ml). The syringe was cleaned with ethanol between each application. The cap to the glass vial was placed on the vial loosely, thereby assuring proper ventilation. The coupon was allowed to dry for a minimum of 1.5 hours. Twelve (12) coupons were loaded in this way, six being used to determine the average amount of drug loaded onto the device and six being used to measure the time needed to release the drug from the devices.
The coupon was placed onto a 5210 Branson sonicator for one hour. The coupon was then removed from the solution, and the solution was assayed by HPLC.
The time release studies were performed by immersing and removing the individual coupons from fresh aliquots (10.0 ml) of 0.01 M phosphate buffer at a pH of 6.0 at each of the following time intervals; 5, 15, 30 and 60 minutes. For the remaining time points of 120, 180, 240, 300, 360 minutes, volumes of 5.0 ml of buffer were used. To facilitate mixing during the drug release phase, the samples were placed onto a Eberbach shaker set at low speed. All solution aliquots were assayed by HPLC after the testing of the last sample was completed.
The HPLC analysis was performed with a Hewlett Packard series 1100 instrument having the following settings: Injection Volume is 100 μl; Acquisition Time is 40 minutes; Flow Rate is 1.0 ml/min; Column Temperature is 40 degrees Celsius; Wavelength is 278 nm; Mobile Phase is 65% Acetonitrile/35% H2O; and Column is YMC ODS-A S5 μm, 4.6×250 mm (Part No. A12052546WT).

[5] = loading and release of ABT-578 from 15 mm BiodivYsio drug delivery stents; type: physicochemical; settings: 15 mm BiodivYsio stents, 0.01 M phosphate buffer pH 6.0
Procedure: Twelve individual polymer-coated stents were placed on fixtures designed to hold the stent in a vertical position and the stents were immersed vertically in the drug solution for five minutes. The stents and fixtures were removed from the vials and excess drug solution was blotted away by contacting the stents with an absorbant material. The stents were then allowed to dry in air for 30 minutes in an inverted vertical position.
The stents were removed from the fixtures, and each stent was placed into 50/50 acetonitrile/phosphate buffer (pH 5.1, 2.0 ml) and sonicated for one hour. The stents were removed from the solution and solutions were assayed for concentration of drug, which allowed calculation of the amount of drug originally on the stents. This method was independently shown to remove at least 95% of the drug from the stent coating. On average, the stents contained 60 micrograms of drug ±20 micrograms.
The drug-loaded stents were placed on the fixtures and placed into 0.01 M phosphate buffer (pH=6.0, 1.9 ml) in individual vials. These samples were placed onto an Eberbach shaker set at low speed to provide back-and-forth agitation. To avoid approaching drug saturation in the buffer, the stents were transferred periodically to fresh buffer vials at the following points: 15, 30, 45, 60, 120, 135, 150, 165, 180, 240, 390 minutes. The dissolution buffer vials were assayed by HPLC for the drug concentration at the end of the drug release period studied. The data, represented as % cumulative release of the drug as a function of time, is shown in tabular form below: […]

[6] = system: in-stent neointima formation in coronary arteries of adult miniature swine; assay: safety and efficacy of ABT-578 dosages on in-stent neointima formation, BiodivYsio OC stent in swine; type: in vivo, Yucatan miniature swine
Procedure: The purpose of this example was to evaluate the safety and efficacy of different drug dosages on neointima formation. […] In-stent neointima formation was measured at […] time intervals; 3 days, 1 month, and 3 months in the coronary arteries of adult miniature swine. Forty (40) animals were studied at each time interval (10 animals per dose). Each animal received one drug-coated stent and one control stent. The control stent contained no drug.
Potential local tissue toxicity was assessed at all time intervals by examining histopathologic changes in the stented region, adjacent coronary segments, perivascular tissue, and subserved myocardium. The mortality, angiographic implant and restudy data, histomorphometry data, and stent site histopathology were studied.

[7] = porcine coronary artery, 28 days
[8] = one month, dose groups 3 and 4 vs control

40-epi-N-[2′-pyridone]-rapamycin [Example 2-pyridone, reference compound]
IC50 [1]: 12.4 ± 5.3 nM | t1/2 [2]: 2.8 h

CO[C@H]1C[C@@H]2CC[C@@H](C)[C@@](O)(O2)C(=O)C(=O)N2CCCC[C@H]2C(=O)O[C@H]([C@H](C)C[C@@H]2CC[C@H](n3ncnn3)[C@H](OC)C2)CC(=O)[C@H](C)/C=C(\C)[C@@H](O)[C@@H](OC)C(=O)[C@H](C)C[C@H](C)/C=C/C=C/C=C/1C [Example 1B, 42-(2-tetrazolyl)-rapamycin]
terminal elimination half-life (t1/2) compared to rapamycin [2]: substantially shorter

COC1CC2CCC(C)C(O)(O2)C(=O)C(=O)N2CCCCC2C(=O)OC(C(C)CC2CCC(n3cnnn3)C(OC)C2)CC(=O)C(C)C=C(C)C(O)C(OC)C(=O)C(C)CC(C)C=CC=CC=C1C (centres unmarked) [Example 1C, 42-(1-tetrazolyl)-rapamycin]
lumen area vs polymer only stent [3, 7]: greater lumen area | neointimal area vs polymer only stent [3, 7]: lower neointimal area | neointimal thickness vs polymer only stent [3, 7]: lower neointimal thickness | neointimal hyperplasia ([3]; stent with polymer placed in porcine coronary artery): reduction in neointimal hyperplasia | Percent Release ([4]; 0.00 min): 0.00 | Percent Release ([4]; 5.00 min): 1.87 | Percent Release ([4]; 15.00 min): 2.97 | Percent Release ([4]; 30.00 min): 3.24 | Percent Release ([4]; 60.00 min): 3.29 | Percent Release ([4]; 180.00 min): 4.36 | Percent Release ([4]; 240.00 min): 4.37 | Percent Release ([4]; 300.00 min): 6.34 | Percent Release ([4]; 360.00 min): 7.88

CO[C@H]1C[C@@H]2CC[C@@H](C)[C@@](O)(O2)C(=O)C(=O)N2CCCC[C@H]2C(=O)O[C@H]([C@H](C)C[C@@H]2CC[C@H](n3cnnn3)[C@H](OC)C2)CC(=O)[C@H](C)/C=C(\C)[C@@H](O)[C@@H](OC)C(=O)[C@H](C)C[C@H](C)/C=C/C=C/C=C/1C [Example 1C, 42-(1-tetrazolyl)-rapamycin]
% Cumulative Release of Drug ([5]; 15 min): 0.3% | % Cumulative Release of Drug ([5]; 30 min): 1.1% | % Cumulative Release of Drug ([5]; 45 min): 2.1% | % Cumulative Release of Drug ([5]; 60 min): 3.2% | % Cumulative Release of Drug ([5]; 120 min): 4.3% | % Cumulative Release of Drug ([5]; 135 min): 5.9% | % Cumulative Release of Drug ([5]; 150 min): 6.3% | % Cumulative Release of Drug ([5]; 165 min): 6.8% | % Cumulative Release of Drug ([5]; 180 min): 7.4% | % Cumulative Release of Drug ([5]; 240 min): 10.8% | % Cumulative Release of Drug ([5]; 390 min): 13.2% | local coronary arterial wall toxicity (medial necrosis or stent malapposition) ([6]; any dose group incl. approximately 27 μg/mm, any time interval): no local coronary arterial wall toxicity | histologic % stenosis ([6]; one month, dose group 3 vs control): tendency towards decreased | Intima area normalized to injury score ([6]; one month, dose groups 3 and 4 (10 and 27 μg/mm) vs control): significantly decreased | absolute intima area [6, 8]: trends for decreases | intima thickness [6, 8]: trends for decreases | vessel wall toxicity ([6]; one month, even at the highest dose (27 μg/mm)): no evidence of vessel wall toxicity | neointima formation in stented coronary arteries ([6]; one-month group, locally eluted): significant inhibitory effect | endothelial recovery over the stent struts ([6]; three days after implant, regardless of dosage): did not appear retarded | neointima cross-sectional area and % area stenosis of the lumen ([6]; three-month period): weak trends for decreases | histomorphometric parameters of stented coronary arterial dimension ([6]; three-month period, between the dose groups): no significant differences | terminal elimination half-life (t1/2) compared to rapamycin [2]: substantially shorter

COC1CC2CCC(C)C(O)(O2)C(=O)C(=O)N2CCCCC2C(=O)OC(C(C)CC2CCC(n3ccc(=O)cc3)C(OC)C2)CC(=O)C(C)C=C(C)C(O)C(OC)C(=O)C(C)CC(C)C=CC=CC=C1C (stereo not drawn) [Example 4-pyridone, 40-epi-N-[4′-pyridone]-rapamycin, reference compound]
IC50 [1]: 0.43 ± 0.2 nM | t1/2 [2]: 13.3 h

CO[C@H]1C[C@@H]2CC[C@@H](C)[C@@](O)(O2)C(=O)C(=O)N2CCCC[C@H]2C(=O)O[C@H]([C@H](C)C[C@@H]2CC[C@@H](O)[C@H](OC)C2)CC(=O)[C@H](C)/C=C(\C)[C@@H](O)[C@@H](OC)C(=O)[C@H](C)C[C@H](C)/C=C/C=C/C=C/1C [Rapamycin]
IC50 ([1]; Homo sapiens, Lymphocyte): 0.91 ± 0.36 nM
